This passage reports IC50 results from US20170326125A1, “MULTISUBSTITUTED AROMATIC COMPOUNDS AS INHIBITORS OF THROMBIN” (VERSEON CORPORATION, priority 2016, published 2017).

One may read the IC50 as the concentration needed to halve the response being measured.

Bounds are passed on as bounds.

For the assay, the target named is T1, Human thrombin (Homo sapiens, UniProt P00734).
T1 construct: purchased Haematologic Technologies Inc
Nature of the assay: Inhibition of the protease activity of thrombin (chromogenic substrate S-2238). In kind it is biochemical. To be noted: inhibition of the protease activity of thrombin; class symbols a/b/c. On the procedure: Compounds described herein can be assayed, by a variety of methods known in the art and described herein, for inhibition of biological activity, e.g., protease activity, of a variety of proteins, e.g., thrombin.
The thrombin activity reported herein (e.g., Table A) was obtained as follows. Human thrombin was obtained from Haematologic Technologies Inc. The chromogenic
Thrombin was assayed in buffer containing 0.05 M Tris (pH 7.4), 0.015 M NaCl and 0.01% PEG-8000. The final concentration of enzyme used was 3 nM thrombin. […] All assays were performed in 96-well microtiter plates at room temperature (RT). […] Inhibitor IC50 values were determined by adding test compound as ten point, three-fold serial dilutions in buffer solution, as known in the art. The plate was read at 10 minutes after substrate addition. The IC50 was calculated by plotting the percent (%) inhibition against compound concentration and fitting the data to a constrained four parameter sigmoidal curve, as known in the art.
Turning to `COc1ccccc1C(=O)n1nc(-c2ccccn2)nc1NCc1cccc2ccccc12` [Cmpd 119, 1-[(2-methoxyphenyl)carbonyl]-N-(naphthalen-1-ylmethyl)-3-(pyridin-2-yl)-1H-1,2,4-triazol-5-amine], the IC50 is above 1 µM.

Molecule `COc1ccccc1C(=O)n1nc(-c2ccccn2)nc1NCc1ccc2ccccc2c1` [Cmpd 120, 1-[(2-methoxyphenyl)carbonyl]-N-(naphthalen-2-ylmethyl)-3-(pyridin-2-yl)-1H-1,2,4-triazol-5-amine] displayed an IC50 above 1 µM.

`O=C(c1ccc(Cl)cc1)n1nc(-c2ccccn2)nc1NCc1ccc(F)cc1` [Cmpd 121, 1-[(4-chlorophenyl)carbonyl]-N-[(4-fluorophenyl)methyl]-3-(pyridin-2-yl)-1H-1,2,4-triazol-5-amine] displayed an IC50 below 0.1 µM.

As for `O=C(c1ccc(Cl)cc1)n1nc(-c2ccncc2)nc1NCc1ccc(F)cc1` [Cmpd 122, 1-[(4-chlorophenyl)carbonyl]-N-[(4-fluorophenyl)methyl]-3-(pyridin-4-yl)-1H-1,2,4-triazol-5-amine], the IC50 lay in the range of 0.1 to 1 µM.

In the case of `COc1ccc(CNc2nc(-c3ccccn3)nn2C(=O)c2ccco2)cc1` [Cmpd 123, 1-[(furan-2-yl)carbonyl]-N-[(4-methoxyphenyl)methyl]-3-(pyridin-2-yl)-1H-1,2,4-triazol-5-amine], the IC50 was in the range of 0.1 to 1 µM.

In turn, `COc1ccc(CNc2nc(-c3ccncc3)nn2C(=O)c2ccco2)cc1` [Cmpd 124, 1-[(furan-2-yl)carbonyl]-N-[(4-methoxyphenyl)methyl]-3-(pyridin-4-yl)-1H-1,2,4-triazol-5-amine] gave a half-inhibitory concentration (IC50) of 0.1 to 1 µM.

`COc1ccc(CNc2nc(-c3ccccn3)nn2C(=O)c2ccoc2)cc1` [Cmpd 125, 1-[(furan-3-yl)carbonyl]-N-[(4-methoxyphenyl)methyl]-3-(pyridin-2-yl)-1H-1,2,4-triazol-5-amine]: the half-maximal inhibitory concentration (IC50) is 0.1 to 1 µM.

The molecule `COc1ccc(CNc2nc(-c3cccnc3)nn2C(=O)c2ccoc2)cc1` [Cmpd 126, 1-[(furan-3-yl)carbonyl]-N-[(4-methoxyphenyl)methyl]-3-(pyridin-3-yl)-1H-1,2,4-triazol-5-amine] displayed an IC50 of 0.1 to 1 µM.

Regarding `COc1ccc(CNc2nc(-c3ccncc3)nn2C(=O)c2ccoc2)cc1` [Cmpd 127, 1-[(furan-3-yl)carbonyl]-N-[(4-methoxyphenyl)methyl]-3-(pyridin-4-yl)-1H-1,2,4-triazol-5-amine], the IC50 is above 1 µM.

`CN(C)C(=O)c1cc(-c2ccccn2)nn1CCc1ccc(F)cc1` [Cmpd 128, 1-[2-(4-fluorophenyl)ethyl]-N,N-dimethyl-3-(pyridin-2-yl)-1H-pyrazole-5-carboxamide] showed an IC50 above 1 µM.

Turning to `CN(C)C(=O)c1cc(-c2ccccn2)n(CCc2ccc(F)cc2)n1` [Cmpd 129, 1-[2-(4-fluorophenyl)ethyl]-N,N-dimethyl-5-(pyridin-2-yl)-1H-pyrazole-3-carboxamide], the 50% inhibitory concentration (IC50) was above 1 µM.

For the molecule `CN(C(=O)c1cc(-c2ccccn2)nn1CCc1ccc(F)cc1)c1ccccc1` [Cmpd 130, 1-[2-(4-fluorophenyl)ethyl]-N-methyl-N-phenyl-3-(pyridin-2-yl)-1H-pyrazole-5-carboxamide], the IC50 is above 1 µM.

`CN(C(=O)c1cc(-c2ccccn2)n(CCc2ccc(F)cc2)n1)c1ccccc1` [Cmpd 131, 1-[2-(4-fluorophenyl)ethyl]-N-methyl-N-phenyl-5-(pyridin-2-yl)-1H-pyrazole-3-carboxamide]: the IC50 was above 1 µM.

`CC(C)(C)C(=O)n1nc(-c2ccccc2F)cc1NCc1ccccc1` [Cmpd 133, 1-[5-(benzylamino)-3-(2-fluorophenyl)-1H-pyrazol-1-yl]-2,2-dimethylpropan-1-one]: the IC50 was in the range of 0.1 to 1 µM.

In turn, `CC(C)CC(=O)n1nc(-c2ccccc2F)cc1NCc1ccccc1` [Cmpd 134, 1-[5-(benzylamino)-3-(2-fluorophenyl)-1H-pyrazol-1-yl]-3-methylbutan-1-one] displayed an IC50 above 1 µM.

As to `CCC(=O)n1nc(-c2cccc(F)c2)nc1NCc1ccccc1` [Cmpd 135, 1-[5-(benzylamino)-3-(3-fluorophenyl)-1H-1,2,4-triazol-1-yl]propan-1-one], the IC50 fell in the range of 0.1 to 1 µM.

Consider `CC(C)(C)C(=O)n1nc(-c2ccco2)nc1NCc1ccccc1` [Cmpd 136, 1-[5-(benzylamino)-3-(furan-2-yl)-1H-1,2,4-triazol-1-yl]-2,2-dimethylpropan-1-one], for which the IC50 was below 0.1 µM.

`CC(C)(C)C(=O)n1nc(-c2ccccn2)nc1NCc1ccccc1` [Cmpd 137, 1-[5-(benzylamino)-3-(pyridin-2-yl)-1H-1,2,4-triazol-1-yl]-2,2-dimethylpropan-1-one] gave an IC50 below 0.1 µM.

With `CC(C)C(=O)n1nc(-c2ccccn2)nc1NCc1ccccc1` [Cmpd 138, 1-[5-(benzylamino)-3-(pyridin-2-yl)-1H-1,2,4-triazol-1-yl]-2-methylpropan-1-one], the IC50 was below 0.1 µM.

`O=C(Cc1ccccc1)n1nc(-c2ccccn2)nc1NCc1ccccc1` [Cmpd 139, 1-[5-(benzylamino)-3-(pyridin-2-yl)-1H-1,2,4-triazol-1-yl]-2-phenylethan-1-one]: the IC50 is below 0.1 µM.

As for `CC(C)CC(=O)n1nc(-c2ccccn2)nc1NCc1ccccc1` [Cmpd 140, 1-[5-(benzylamino)-3-(pyridin-2-yl)-1H-1,2,4-triazol-1-yl]-3-methylbutan-1-one], the IC50 is below 0.1 µM.

As to `CCCC(=O)n1nc(-c2ccccn2)nc1NCc1ccccc1` [Cmpd 141, 1-[5-(benzylamino)-3-(pyridin-2-yl)-1H-1,2,4-triazol-1-yl]butan-1-one], the 50% inhibitory concentration (IC50) is below 0.1 µM.

`CC(C)CC(=O)n1nc(-c2ccccn2)cc1NCc1ccccc1` [Cmpd 144, 1-[5-(benzylamino)-3-(pyridin-2-yl)-1H-pyrazol-1-yl]-3-methylbutan-1-one] registered an IC50 of 0.1 to 1 µM.

For `CC(C)(C)C(=O)n1nc(-c2ccncc2)nc1NCc1ccccc1` [Cmpd 145, 1-[5-(benzylamino)-3-(pyridin-4-yl)-1H-1,2,4-triazol-1-yl]-2,2-dimethylpropan-1-one], the half-inhibitory concentration (IC50) was below 0.1 µM.

Turning to `CC(C)C(=O)n1nc(-c2ccncc2)nc1NCc1ccccc1` [Cmpd 146, 1-[5-(benzylamino)-3-(pyridin-4-yl)-1H-1,2,4-triazol-1-yl]-2-methylpropan-1-one], the IC50 was below 0.1 µM.

In turn, `O=C(Cc1ccccc1)n1nc(-c2ccncc2)nc1NCc1ccccc1` [Cmpd 147, 1-[5-(benzylamino)-3-(pyridin-4-yl)-1H-1,2,4-triazol-1-yl]-2-phenylethan-1-one] gave a concentration for half-maximal inhibition (IC50) below 0.1 µM.

In turn, `CC(C)CC(=O)n1nc(-c2ccncc2)nc1NCc1ccccc1` [Cmpd 148, 1-[5-(benzylamino)-3-(pyridin-4-yl)-1H-1,2,4-triazol-1-yl]-3-methylbutan-1-one] registered an IC50 below 0.1 µM.

The molecule `O=C(CCc1ccccc1)n1nc(-c2ccncc2)nc1NCc1ccccc1` [Cmpd 149, 1-[5-(benzylamino)-3-(pyridin-4-yl)-1H-1,2,4-triazol-1-yl]-3-phenylpropan-1-one] came in with an IC50 of 0.1 to 1 µM.

The molecule `CCCC(=O)n1nc(-c2ccncc2)nc1NCc1ccccc1` [Cmpd 150, 1-[5-(benzylamino)-3-(pyridin-4-yl)-1H-1,2,4-triazol-1-yl]butan-1-one] yielded an IC50 below 0.1 µM.

Regarding `CCC(=O)n1nc(-c2ccncc2)nc1NCc1ccccc1` [Cmpd 151, 1-[5-(benzylamino)-3-(pyridin-4-yl)-1H-1,2,4-triazol-1-yl]propan-1-one], the IC50 was below 0.1 µM.

Molecule `CC(C)(C)C(=O)n1nc(-c2cccs2)nc1NCc1ccccc1` [Cmpd 152, 1-[5-(benzylamino)-3-(thiophen-2-yl)-1H-1,2,4-triazol-1-yl]-2,2-dimethylpropan-1-one] registered an IC50 below 0.1 µM.

For `CCC(=O)n1nc(-c2cccnc2)nc1SC` [Cmpd 153, 1-[5-(methylsulfanyl)-3-(pyridin-3-yl)-1H-1,2,4-triazol-1-yl]propan-1-one], the IC50 is above 1 µM.

Molecule `CCC(=O)n1nc(-c2cccs2)nc1SC` [Cmpd 154, 1-[5-(methylsulfanyl)-3-(thiophen-2-yl)-1H-1,2,4-triazol-1-yl]propan-1-one] showed a 50% inhibitory concentration (IC50) above 1 µM.

`CCC(=O)n1nc(-c2cccnc2)nc1N` [Cmpd 155, 1-[5-amino-3-(pyridin-3-yl)-1H-1,2,4-triazol-1-yl]propan-1-one] came in with an IC50 above 1 µM.

`COc1ccc(CNc2nc(-c3ccccn3)nn2C(=O)c2ccccc2)cc1` [Cmpd 157, 1-benzoyl-N-[(4-methoxyphenyl)methyl]-3-(pyridin-2-yl)-1H-1,2,4-triazol-5-amine] had an IC50 of 0.1 to 1 µM.

In turn, `COc1ccc(CNc2nc(-c3ccncc3)nn2C(=O)c2ccccc2)cc1` [Cmpd 158, 1-benzoyl-N-[(4-methoxyphenyl)methyl]-3-(pyridin-4-yl)-1H-1,2,4-triazol-5-amine] returned an IC50 above 1 µM.

In turn, `O=C(c1ccccc1)n1nc(-c2ccccn2)nc1NCc1ccccc1` [Cmpd 159, 1-benzoyl-N-benzyl-3-(pyridin-2-yl)-1H-1,2,4-triazol-5-amine] gave an IC50 below 0.1 µM.

`O=C(c1ccccc1)n1nc(-c2ccncc2)nc1NCc1ccccc1` [Cmpd 160, 1-benzoyl-N-benzyl-3-(pyridin-4-yl)-1H-1,2,4-triazol-5-amine] gave an IC50 below 0.1 µM.

Regarding `Fc1ccc(CNc2nc(-c3ccccn3)n(Cc3ccccc3)n2)cc1` [Cmpd 162, 1-benzyl-N-[(4-fluorophenyl)methyl]-5-(pyridin-2-yl)-1H-1,2,4-triazol-3-amine], the IC50 is above 1 µM.

With `CC(O)c1cc(-c2ccccn2)nn1CCc1ccc(F)cc1` (stereo not shown) [Cmpd 163, 1-1-[2-(4-fluorophenyl)ethyl]-3-(pyridin-2-yl)-1H-pyrazol-5-ylethan-1-ol], the half-maximal inhibitory concentration (IC50) was above 1 µM.
